Test results from patent publication US12435083B2, “Cyclopropyl-(hetero)aryl-substituted ethylsulphonyl-pyridine derivatives” (BOEHRINGER INGELHEIM VETMEDICA GMBH, priority 2021, dated 2025).
Where two headings read alike, the source gives them in different places.

How the values were obtained:
[1] = tested on: adult Ctenocephalides felis fleas; assay: Contact activity against adult Ctenocephalides felis (treated surface, motility by machine vision, 24 h); details: read-out: EC80 (% motility reduction, adult C. felis, contact)
Description: Example 7: Screening Method to Test Contact Activity of Compounds of Formula (I) Against Adult Ctenocephalides felis

Plutella xylostella = assay: Insecticidal test on Plutella xylostella (Chinese cabbage seedling dip); details: 144 h, read-out: activity level (corrected mortality rate), Plutella xylostella
Procedure: Example 12: Insecticidal Test on Plutella xylostella
(§1) The compounds of formula (I) of the present invention or salts thereof were separately dispersed in water and diluted to 500 ppm. Ten adults of Plutella xylostella were released onto Chinese cabbage seedlings and allowed to lay eggs thereon. 2 days after the release of the adults, the seedling was dipped in the dispersion for about 30 seconds. After air dried, the seedling was kept in a room at 25° C. 6 days after the dip treatment, the numbers of the dead and alive insects were counted. The corrected mortality rate was calculated according to the following formula and the insecticidal activity was evaluated according to the following criteria. Corrected mortality rate (%)=100×(Survival rate in an untreated plot−Survival rate in a treated plot)/Survival rate in an untreated plot • A: the corrected mortality rate is 100% • B: the corrected mortality rate is 90 to 99% • C: the corrected mortality rate is 80 to 89% • D: the corrected mortality rate is 50 to 79%

Myzus persicae = assay: Insecticidal test on Myzus persicae (foliar application on potted Chinese cabbage); details: 144 h, 500 ppm, foliar application, 6 days after application, read-out: control efficacy level (control rate), Myzus persicae
Description: Example 14: Insecticidal Test on Myzus persicae
The compounds of formula (I) of the present invention or salts thereof were separately dispersed in water and diluted to 500 ppm. Chinese cabbage plants were planted in plastic pots (diameter: 8 cm, height: 8 cm). Aphids (Myzus persicae) were propagated on the plants and then the number of surviving aphids was counted. The dispersion was applied to the foliage of the potted plants. After the plants were air dried, these were kept in a greenhouse. 6 days after the application, the number of the alive insects was counted on the plants. The control rate was calculated according to the following formula and the control efficacy was evaluated according to the following criteria. Control rate (%)=100−{(T×Ca)/(Ta×C)}×100 • Ta: the number of alive insects before the foliar application in a treated plot • T: the number of alive insects after the foliar application in a treated plot • Ca: the number of alive insects before the foliar application in an untreated plot • C: the number of alive insects after the foliar application in an untreated plot • A: the control rate is 100% • B: the control rate is 90 to 99% • C: the control rate is 80 to 89% • D: the control rate is 50 to 79%

[2] = tested on: adult Ctenocephalides felis fleas; assay: Ingestion activity (flea membrane feeding, blood feeding) against adult Ctenocephalides felis; details: Ctenocephalides felis
Description: Example 6: Screening Method to Test Ingestion Activity of Compounds of Formula (I) Against Adult Ctenocephalides felis
(§2) The four structurally closest prior art compounds (A), (B), (C) and (D) specifically excluded from the scope of formula (I) were characterized vis-a-vis selected compounds of formula (I) with regard to their potency in in vitro screening assays against fleas (Ctenocehalides felis) and ticks (Rhipicephalus sanguineus).
It is important to note that compounds that show better activity versus ticks are more desirable in the animal health field, as ticks are more difficult to control than fleas. Noteworthy, in particular with regard to fleas the illustrated comparative data are based on a flea membrane feeding (ingestion, blood feeding) assay. Data from this assay are more relevant for compounds intended to be delivered systemically to an animal via oral or injectable routes. Membrane feeding assays differ to primary screening laboratory contact assays in that the latter only measure the effect of the direct contact of selected compounds on the parasite, such as the flea or the tick. The information derived from laboratory contact assays is strictly limited to the ability of the compound to be absorbed through the parasite surface and to reach its molecular target, and no information can be gleaned from these contact assays as to whether the compound would also be active when presented orally to the ectoparasite itself in a blood meal, such as with the membrane feeding assay, and certainly not when administered orally to an animal host (e.g. “in vivo”) with subsequent exposure to the ectoparasite.
(§3) However, as explained above, spectrum of action against this range of species (i.e. fleas and ticks) is a desirable property of ectoparasiticides for veterinary use. In the following table 1 comparative experimental data of the in vitro assays are shown regarding flea membrane feeding (ingestion, blood feeding) activity against Ctenocephalides felis and contact activity against Rhipicephalus sanguineus.

[3] = tested on: Laodelphax striatellus 3rd-instar nymphs; assay: Insecticidal test on Laodelphax striatellus (rice seedling dip); details: 192 h, read-out: activity level (corrected mortality rate), Laodelphax striatellus
Procedure: Example 13: Insecticidal Test on Laodelphax striatellus
as §1, with “Rice plant seedlings” for “Ten adults of Plutella xylostella”, “were” for “were released onto Chinese cabbage seedlings and allowed to lay eggs thereon. 2 days after the release of the adults, the seedling was”, “seedlings were put into a separate glass test tube and inoculated with ten 3rd-instar nymphs of Laodelphax striatellus and then the glass test tube” for “seedling”, “8” for “6”, “inoculation,” for “dip treatment,”

Aedes aegypti L1 larvae = assay: Activity against larvae of Aedes aegypti (L1 larvae, 384-well, image-based mortality); details: 48 h at 27° C., 384-well, read-out: EC50 (percentage of mortality, A. aegypti L1 larvae)
Procedure: Example 3: Screening Method to Test Activity of Compounds of Formula (I) Against Larvae of Aedes aegypti
Eight A. aegypti L1 larvae in a total volume of 64 μL water were added to 384-well microplates containing compounds formulated in 100% DMSO. The plates were incubated for 48 h at 27° C. Individual well images were acquired and analyzed using a pipeline to quantitatively assess the amount of larvae biomass accumulating at the bottom of the well. The efficacy of a compound at a given dose is expressed as “percentage of mortality” and determined by comparison to average biomass descriptors of positive and negative control wells containing 1.0 μM Fipronil or DMSO only, respectively. Dose response assay were conducted to determine an EC50 value.

[4] = tested on: adult Rhipicephalus sanguineus ticks; assay: Contact activity against adult Rhipicephalus sanguineus (coated vial, mortality at 48 h); details: Rhipicephalus sanguineus
Procedure: Example 5: Screening Method to Test Contact Activity of Compounds of Formula (I) Against Adult Rhipicephalus sanguineus
Compounds of formula (I) formulated in 100% DMSO were diluted in a solution containing acetone and Triton X-100 (0.02%). The resulting formulation was used to coat the inner walls of glass scintillation vials and the filter paper covering the cap of the vial. Once dried, ten adult R. sanguineus ticks were added to the vials. The vials were incubated at 24° C., 95% relative humidity, and 12 hours of light/12 hours of dark until evaluation. Ticks were visually evaluated for mortality at 48 hours post-treatment. Compound efficacy at a given dose is expressed as percentage mortality. A dose response series was implemented to determine EC50 values.
as §2, §3

[5] = 500 ppm, seedling dip, 6 days after dip treatment
[6] = bovine blood, 24h post treatment, read-out: EC80 (% motility reduction, adult C. felis, ingestion via membrane feeding)
[7] = 500 ppm, seedling dip, 8 days after inoculation
[8] = 48 hours post-treatment, coated vial, read-out: EC50 (percentage mortality, adult R. sanguineus, contact)

SMILES	EC80 ([1]; treated surface, 24h)	mortality at 500 ppm (Plutella xylostella; [5])	pest or weed control at 500 ppm (Myzus persicae)	mortality at 500 ppm [3, 7]	other results
CCn1cc(C(F)(F)F)cc2nc(-c3ncc(-c4ncc(C5CC5)cn4)cc3S(=O)(=O)CC)cc1-2 [Compound 92, 5-cyclopropyl-2-[5-(ethanesulfonyl)-6-[4-ethyl-6-(trifluoromethyl)pyrrolo[3,2-b]pyridin-2-yl]pyridin-3-yl]pyrimidine]	1 to 10 µM	100%	100%	–	–
CCn1c(=O)c(C(F)(F)F)cc2nc(-c3ncc(-c4ccc(C5CC5)cc4)cc3S(=O)(=O)CC)n(C)c21 [compound 125]	1 to 10 µM	–	100%	–	–
CCS(=O)(=O)c1cc(-c2cnc(C3CC3)nc2)cnc1-c1nc2cc(C(F)(F)C(F)(F)F)nnc2n1C [Compound 93, 2-cyclopropyl-5-[5-(ethanesulfonyl)-6-[7-methyl-3-(1,1,2,2,2-pentafluoroethyl)imidazo[4,5-c]pyridazin-6-yl]pyridin-3-yl]pyrimidine]	< 1 µM	–	–	–	EC80 [2, 6]: 1 to 10 µM
CCS(=O)(=O)c1cc(-c2cccnc2C2CC2)cnc1-c1nc2cc(C(F)(F)C(F)(F)F)nnc2n1C [compound 138]	< 1 µM	100%	100%	100%	EC80 [2, 6]: < 1 µM
CCS(=O)(=O)c1cc(-c2cncc(C3CC3)c2)cnc1-c1nc2cc(C(F)(F)C(F)(F)F)nnc2n1C [Compound 61, 5′-cyclopropyl-5-(ethanesulfonyl)-6-[7-methyl-3-(1,1,2,2,2-pentafluoroethyl)imidazo[4,5-c]pyridazin-6-yl]-3,3′-bipyridine]	–	–	–	–	EC50 (Aedes aegypti L1 larvae): 0.04 to 0.05 µM; EC50 [4, 8]: 10 to 100 µM
CCS(=O)(=O)c1cc(-c2ccc(C3(C(F)(F)F)CC3)cc2)cnc1-c1nc2cc(C(F)(F)C(F)(F)F)ncc2n1C [compound 116]	–	–	–	–	EC50 (Aedes aegypti L1 larvae): < 0.04 µM
CCS(=O)(=O)c1cc(-c2ccc(C3CC3)cc2)cnc1-c1nc(-c2cc(C(F)(F)F)ccn2)cn1C [Compound 55, 5-(4-cyclopropylphenyl)-3-(ethanesulfonyl)-2-[1-methyl-4-[4-(trifluoromethyl)pyridin-2-yl]imidazol-2-yl]pyridine]	–	100%	100%	100%	–
CCS(=O)(=O)c1cc(-c2cnnc(C3CC3)c2)cnc1-c1nc2cc(C(F)(F)C(F)(F)F)cnc2n1C [Compound 195, 3-cyclopropyl-5-[5-(ethanesulfonyl)-6-[3-methyl-6-(1,1,2,2,2-pentafluoroethyl)imidazo[4,5-b]pyridin-2-yl]pyridin-3-yl]pyridazine]	–	100%	–	100%	EC80 [2, 6]: < 1 µM
CCS(=O)(=O)c1cc(-c2ccc(C3CC3(F)F)cc2)cnc1-c1nc2cc(C(F)(F)C(F)(F)F)cnc2n1C (centres unmarked) [compound 134]	1 to 10 µM	100%	100%	100%	EC50 [4, 8]: 10 to 100 µM; EC50 ([4]; contact assay, >100 μM = not active at the top concentration, read-out: R. sanguineus contact activity EC50): 10 to 100 µM; EC80 ([2]; 24 h, flea membrane feeding (ingestion, blood feeding) assay, EC80, read-out: C. felis membrane feeding (ingestion/blood feeding) activity EC80): 1 to 10 µM; EC80 [2, 6]: 1 to 10 µM
CCS(=O)(=O)c1cc(-c2ccc(C3CC3)cc2)cnc1-c1cc2n(C(C)C)cc(C(F)(F)F)cc-2n1 [Compound 100, 5-(4-cyclopropylphenyl)-3-(ethanesulfonyl)-2-[4-isopropyl-6-(trifluoromethyl)pyrrolo[3,2-b]pyridin-2yl]pyridine]	–	–	–	–	EC50 ([4]; 48 h, read-out: EC50 (percentage mortality, adult R. sanguineus, contact)): < 10 µM; EC80 ([1]; 24 h): 1 to 10 µM; mortality at 500 ppm (Plutella xylostella): 100%; mortality at 500 ppm [3]: 100%
CCS(=O)(=O)c1cc(-c2ccc(C3CC3)cc2)cnc1-n1cc2cnc(S(=O)(=O)C(F)(F)F)cc2n1 [Compound 30, 5-(4-cyclopropylphenyl)-3-(ethanesulfonyl)-2-[6-trifluoromethanesulfonylpyrazolo[4,3-c]pyridin-2-yl]pyridine]	1 to 10 µM	–	–	–	EC50 (Aedes aegypti L1 larvae): < 0.04 µM
CCS(=O)(=O)c1cc(-c2ccc(C3CC3)cc2)cnc1-c1ccc(OCC(F)(F)C(F)(F)F)nn1 [Compound 126, 3-[5-(4-cyclopropylphenyl)-3-(ethanesulfonyl)pyridin-2-yl]-6-(2,2,3,3,3-pentafluoropropoxy)pyridazine]	–	100%	100%	100%	EC50 [4, 8]: < 10 µM
CCS(=O)(=O)c1cc(-c2ccc(C3(C)CC3)cc2)cnc1-c1nc2cc(C(F)(F)C(F)(F)F)nnc2n1C [compound 154]	1 to 10 µM	100%	100%	–	EC50 [4, 8]: 10 to 100 µM
CCn1cc(C(F)(F)F)cc2nc(-c3ncc(-c4ccc(C5CC5)cc4)cc3S(=O)(=O)CC)cc1-2 [Compound 6, 5-(4-cyclopropylphenyl)-3-(ethanesulfonyl)-2-[4-ethyl-6-(trifluoromethyl)pyrrolo[3,2-b]pyridine-2-yl]pyridine]	1 to 10 µM	100%	–	–	–
CCS(=O)(=O)c1cc(-c2ccc(C3CC3)cc2)cnc1-c1nc2cc(C(F)(F)F)cnc2o1 [Compound 40, 5-(4-cyclopropylphenyl)-3-(ethanesulfonyl)-2-[6-(trifluoromethyl)-[1,3]oxazolo[5,4-b]pyridin-2-yl]pyridine]	1 to 10 µM	100%	–	–	–
